Measurements taken from publication PMC3523469 (Investigational New Drugs, 2012).
Where two headings read alike, the source gives them in different places.

Type: in vivo, Japanese patients

COc1cc2ncnc(Nc3ccc(F)c(Cl)c3)c2cc1NC(=O)/C=C/CN1CCCCC1 [dacomitinib, Dacomitinib]
5: Dry skin, number of patients with treatment-related AE (45 mg QD (n = 7), All) | Fatigue, number of patients with treatment-related AE (45 mg QD (n = 7), All) | Stomatitis, number of patients with treatment-related AE (45 mg QD (n = 7), All) | Dry skin, number of patients with treatment-related AE (45 mg QD (n = 7), G1) | Paronychia, number of patients with treatment-related AE (45 mg QD (n = 7), G2)
2: Alanine aminotransferase increased, number of patients with treatment-related AE (45 mg QD (n = 7), All) | Aspartate aminotransferase increased, number of patients with treatment-related AE (45 mg QD (n = 7), All) | Blood bilirubin increased, number of patients with treatment-related AE (45 mg QD (n = 7), All) | Cheilitis, number of patients with treatment-related AE (45 mg QD (n = 7), All) | Decreased appetite, number of patients with treatment-related AE (45 mg QD (n = 7), All) | Edema, number of patients with treatment-related AE (45 mg QD (n = 7), All) | Hematuria, number of patients with treatment-related AE (45 mg QD (n = 7), All) | Hypertrichosis, number of patients with treatment-related AE (45 mg QD (n = 7), All) | Nausea, number of patients with treatment-related AE (45 mg QD (n = 7), All) | Palmar–plantar erythrodysesthesia, number of patients with treatment-related AE (45 mg QD (n = 7), All) | Skin fissures, number of patients with treatment-related AE (45 mg QD (n = 7), All) | Weight decreased, number of patients with treatment-related AE (45 mg QD (n = 7), All) | Cheilitis, number of patients with treatment-related AE (45 mg QD (n = 7), G1) | Hematuria, number of patients with treatment-related AE (45 mg QD (n = 7), G1) | Hypertrichosis, number of patients with treatment-related AE (45 mg QD (n = 7), G1) | Proteinuria, number of patients with treatment-related AE (45 mg QD (n = 7), G1) | Leukopenia, number of patients with treatment-related AE (45 mg QD (n = 7), G2) | Palmar–plantar erythrodysesthesia, number of patients with treatment-related AE (45 mg QD (n = 7), G2) | Weight decreased, number of patients with treatment-related AE (45 mg QD (n = 7), G2)
6: Paronychia, number of patients with treatment-related AE (45 mg QD (n = 7), All)
7: Diarrhea, number of patients with treatment-related AE (45 mg QD (n = 7), All) | Rash, number of patients with treatment-related AE (45 mg QD (n = 7), All)
0: Dry skin, number of patients with treatment-related AE (30 mg QD (n = 3), G3) | ECG QT prolonged, number of patients with treatment-related AE (30 mg QD (n = 3), G3) | Edema, number of patients with treatment-related AE (30 mg QD (n = 3), G3) | Fatigue, number of patients with treatment-related AE (30 mg QD (n = 3), G3) | Hematuria, number of patients with treatment-related AE (30 mg QD (n = 3), G3) | Hypertrichosis, number of patients with treatment-related AE (30 mg QD (n = 3), G3) | Leukopenia, number of patients with treatment-related AE (30 mg QD (n = 3), G3) | Nausea, number of patients with treatment-related AE (30 mg QD (n = 3), G3) | Palmar–plantar erythrodysesthesia, number of patients with treatment-related AE (30 mg QD (n = 3), G3) | Paronychia, number of patients with treatment-related AE (30 mg QD (n = 3), G3) | Proteinuria, number of patients with treatment-related AE (30 mg QD (n = 3), G3) | Rash, number of patients with treatment-related AE (30 mg QD (n = 3), G3) | Skin fissures, number of patients with treatment-related AE (30 mg QD (n = 3), G3) | Stomatitis, number of patients with treatment-related AE (30 mg QD (n = 3), G3) | Weight decreased, number of patients with treatment-related AE (30 mg QD (n = 3), G3) | ECG QT prolonged, number of patients with treatment-related AE (45 mg QD (n = 7), All) | Alanine aminotransferase increased, number of patients with treatment-related AE (45 mg QD (n = 7), G1) | Aspartate aminotransferase increased, number of patients with treatment-related AE (45 mg QD (n = 7), G1) | Blood bilirubin increased, number of patients with treatment-related AE (45 mg QD (n = 7), G1) | Decreased appetite, number of patients with treatment-related AE (45 mg QD (n = 7), G1) | ECG QT prolonged, number of patients with treatment-related AE (45 mg QD (n = 7), G1) | Palmar–plantar erythrodysesthesia, number of patients with treatment-related AE (45 mg QD (n = 7), G1) | Weight decreased, number of patients with treatment-related AE (45 mg QD (n = 7), G1) | Cheilitis, number of patients with treatment-related AE (45 mg QD (n = 7), G2) | Conjunctivitis, number of patients with treatment-related AE (45 mg QD (n = 7), G2) | Dry skin, number of patients with treatment-related AE (45 mg QD (n = 7), G2) | ECG QT prolonged, number of patients with treatment-related AE (45 mg QD (n = 7), G2) | Hematuria, number of patients with treatment-related AE (45 mg QD (n = 7), G2) | Hypertrichosis, number of patients with treatment-related AE (45 mg QD (n = 7), G2)
4: Diarrhea, number of patients with treatment-related AE (45 mg QD (n = 7), G1) | Stomatitis, number of patients with treatment-related AE (45 mg QD (n = 7), G1) | Fatigue, number of patients with treatment-related AE (45 mg QD (n = 7), G2) | Rash, number of patients with treatment-related AE (45 mg QD (n = 7), G2)
1: Edema, number of patients with treatment-related AE (45 mg QD (n = 7), G1) | Fatigue, number of patients with treatment-related AE (45 mg QD (n = 7), G1) | Leukopenia, number of patients with treatment-related AE (45 mg QD (n = 7), G1) | Nausea, number of patients with treatment-related AE (45 mg QD (n = 7), G1) | Paronychia, number of patients with treatment-related AE (45 mg QD (n = 7), G1) | Rash, number of patients with treatment-related AE (45 mg QD (n = 7), G1) | Skin fissures, number of patients with treatment-related AE (45 mg QD (n = 7), G1) | Alanine aminotransferase increased, number of patients with treatment-related AE (45 mg QD (n = 7), G2) | Aspartate aminotransferase increased, number of patients with treatment-related AE (45 mg QD (n = 7), G2) | Blood bilirubin increased, number of patients with treatment-related AE (45 mg QD (n = 7), G2) | Decreased appetite, number of patients with treatment-related AE (45 mg QD (n = 7), G2) | Edema, number of patients with treatment-related AE (45 mg QD (n = 7), G2) | Nausea, number of patients with treatment-related AE (45 mg QD (n = 7), G2) | Proteinuria, number of patients with treatment-related AE (45 mg QD (n = 7), G2) | Skin fissures, number of patients with treatment-related AE (45 mg QD (n = 7), G2) | Stomatitis, number of patients with treatment-related AE (45 mg QD (n = 7), G2)
3: Conjunctivitis, number of patients with treatment-related AE (45 mg QD (n = 7), All) | Leukopenia, number of patients with treatment-related AE (45 mg QD (n = 7), All) | Proteinuria, number of patients with treatment-related AE (45 mg QD (n = 7), All) | Conjunctivitis, number of patients with treatment-related AE (45 mg QD (n = 7), G1) | Diarrhea, number of patients with treatment-related AE (45 mg QD (n = 7), G2)
